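Briefly, cells in 96-well plates were exposed to five compound concentrations for 48 h, and endpoints were estimated by linear interpolation. Abbreviation: GI50, concentration required for 50% inhibition of growth.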 Active and inactive are the calls of the source. Rule as the data show it: active = GI50 up to about 1.1 µM and inactive = higher.
Experiments:
Assay in all cases: NCI anticancer screen, dose series, 48 h
[1] = system: 786-0
[2] = system: ACHN
[3] = system: BT-549
[4] = system: HCC 2998
[5] = system: HCT-15
[6] = system: Hs-578T
[7] = system: MCF7
[8] = system: MOLT-4
[9] = system: NCI-H226
[10] = system: NCI-H522
[11] = system: NCI/ADR-RES
[12] = system: OVCAR-5
[13] = system: OVCAR-8
[14] = system: RPMI-8226
[15] = system: SK-MEL-2
[16] = system: SK-MEL-5
[17] = system: SK-OV-3
[18] = system: TK-10
[19] = system: UACC-257
[20] = system: UO-31

SMILES | GI50 [1] | GI50 [2] | GI50 [3] | GI50 [4] | GI50 [5] | GI50 [6] | GI50 [7] | GI50 [8] | GI50 [9] | GI50 [10] | GI50 [11] | GI50 [12] | GI50 [13] | GI50 [14] | GI50 [15] | GI50 [16] | GI50 [17] | GI50 [18] | GI50 [19] | GI50 [20]
O=C1OC(CCCN2CCCCC2)(c2ccccc2)CC12CCCC2 (stereo not given) | > 100 µM (inactive) | > 100 µM (inactive) | > 100 µM (inactive) | 66.1 µM (inactive) | > 95.3 µM | 63.1 µM (inactive) | 58.2 µM (inactive) | 40 µM (inactive) | > 96.6 µM (inactive) | > 100 µM (inactive) | > 100 µM (inactive) | > 87.1 µM (inactive) | > 100 µM (inactive) | 50 µM (inactive) | > 100 µM (inactive) | 18.7 µM (inactive) | > 100 µM (inactive) | > 100 µM (inactive) | 23.1 µM (inactive) | 73.1 µM (inactive)
O=C(O)c1nc2cc(C(F)(F)F)ccc2[nH]c1=O | > 100 µM (inactive) | > 100 µM (inactive) | > 100 µM (inactive) | > 100 µM (inactive) | > 100 µM | > 100 µM (inactive) | > 100 µM (inactive) | > 100 µM (inactive) | > 100 µM (inactive) | > 100 µM (inactive) | > 100 µM (inactive) | > 100 µM (inactive) | > 100 µM (inactive) | > 100 µM (inactive) | > 100 µM (inactive) | > 100 µM (inactive) | > 100 µM (inactive) | > 100 µM (inactive) | > 100 µM (inactive) | 60.8 µM (inactive)
CN(C)P(=O)(Oc1ccc(CC(NC(=O)OCc2ccccc2)C(=O)OCc2ccccc2)cc1)N(C)C (stereo not given) | 4.94 µM (inactive) | 18.5 µM (inactive) | 17.1 µM (inactive) | 18.3 µM (inactive) | 17.4 µM | 24.4 µM (inactive) | 12.4 µM (inactive) | 3.35 µM (inactive) | 26.4 µM (inactive) | 13.9 µM (inactive) | 17.9 µM (inactive) | 20 µM (inactive) | 15.9 µM (inactive) | 2.77 µM (inactive) | 15.6 µM (inactive) | 20.7 µM (inactive) | 17.8 µM (inactive) | 21.7 µM (inactive) | 21.4 µM (inactive) | 18.5 µM (inactive)
CC1C(OS(=O)(=O)c2ccc3nc(S)sc3c2)CC2C3(C)CCC2(C(C)C(=O)O)C(O)C13 (stereo not given) | 20.2 µM (inactive) | 15.9 µM (inactive) | 24.9 µM (inactive) | 35.6 µM (inactive) | 12.5 µM | 48.1 µM (inactive) | 27.6 µM (inactive) | 16.9 µM (inactive) | 19.8 µM (inactive) | 3.29 µM (inactive) | 33 µM (inactive) | 25.5 µM (inactive) | 20.1 µM (inactive) | 11.5 µM (inactive) | 29.2 µM (inactive) | 14.8 µM (inactive) | 40.7 µM (inactive) | 44.5 µM (inactive) | 75.7 µM (inactive) | 17.4 µM (inactive)
CNc1nc2c(C)ccc3nc(N(C)C)[nH]c3c-2n1 | 51.3 µM (inactive) | 15.2 µM (inactive) | 84.7 µM (inactive) | 28.2 µM (inactive) | 23.9 µM | 97.9 µM (inactive) | 31.5 µM (inactive) | 32.7 µM (inactive) | 76.7 µM (inactive) | 54 µM (inactive) | 77.1 µM (inactive) | 74.8 µM (inactive) | 34.5 µM (inactive) | 20.7 µM (inactive) | 93.1 µM (inactive) | 20.7 µM (inactive) | 21.1 µM (inactive) | > 100 µM (inactive) | 33.3 µM (inactive) | 34.6 µM (inactive)
O=c1[nH]c(=O)n(C2CC(O)C(CO)O2)c2nc3cc4ccccc4cc3nc12 (stereo not given) | > 100 µM (inactive) | > 100 µM (inactive) | > 100 µM (inactive) | > 100 µM (inactive) | > 100 µM | > 100 µM (inactive) | > 100 µM (inactive) | 61.7 µM (inactive) | > 100 µM (inactive) | > 100 µM (inactive) | > 100 µM (inactive) | > 100 µM (inactive) | 54.3 µM (inactive) | > 100 µM (inactive) | > 100 µM (inactive) | > 100 µM (inactive) | > 100 µM (inactive) | > 100 µM (inactive) | > 100 µM (inactive) | > 100 µM (inactive)
C/C(=N\NC(=S)NC(C)(C)C)c1nc2cccnc2[nH]1 | 3.02 µM (inactive) | 2.82 µM (inactive) | 2.55 µM (inactive) | 3.79 µM (inactive) | 2.47 µM | 3.36 µM (inactive) | 0.309 µM (active) | 2.13 µM (inactive) | 3.4 µM (inactive) | 4.53 µM (inactive) | 3.03 µM (inactive) | 1.14 µM (inactive) | 1.5 µM (inactive) | 6.05 µM (inactive) | 3.85 µM (inactive) | 2.21 µM (inactive) | 3.08 µM (inactive) | 7.35 µM (inactive) | 3.09 µM (inactive) | 1.06 µM (active)
COC(=O)CC1c2ccccc2N2C(=O)Cc3c([nH]c4ccccc34)C12 (stereo not given) | 58.6 µM (inactive) | > 100 µM (inactive) | > 100 µM (inactive) | > 100 µM (inactive) | > 100 µM | 25.4 µM (inactive) | 34.8 µM (inactive) | > 100 µM (inactive) | > 100 µM (inactive) | > 100 µM (inactive) | > 100 µM (inactive) | > 100 µM (inactive) | > 100 µM (inactive) | > 100 µM (inactive) | > 100 µM (inactive) | > 100 µM (inactive) | > 100 µM (inactive) | > 100 µM (inactive) | > 100 µM (inactive) | > 100 µM (inactive)
CCOC(=O)P(=O)(O)c1ccc(N(C)Cc2ccccc2)cc1 | > 100 µM (inactive) | > 100 µM (inactive) | > 100 µM (inactive) | > 100 µM (inactive) | > 100 µM | > 100 µM (inactive) | > 100 µM (inactive) | > 100 µM (inactive) | > 100 µM (inactive) | > 100 µM (inactive) | > 100 µM (inactive) | > 100 µM (inactive) | > 100 µM (inactive) | > 100 µM (inactive) | > 100 µM (inactive) | > 100 µM (inactive) | > 100 µM (inactive) | > 100 µM (inactive) | > 100 µM (inactive) | > 100 µM (inactive)
